Data: publication PMC5334615, “Induction of Diverse Bioactive Secondary Metabolites from the Mangrove Endophytic Fungus Trichoderma sp. (Strain 307) by Co-Cultivation with Acinetobacter johnsonii (Strain B2)” (Marine Drugs, 2017)

Key:
[1] = test system: rat normal pituitary cells (RPC); test: MTT cytotoxicity assay, rat normal pituitary cells; type: cell-based; conditions: tumour cell IC50 compared with RPC IC50
Procedure: (§1) The cytotoxic activities against rat pituitary adenoma MMQ and GH3 cell lines were evaluated by MTT assay following the previous process. Briefly, MMQ and GH3 cell lines were seeded in 96-well plates (Corning, New York, NY, USA) at a density of 5 × 10^4 cells per well. Then, 10 μL of MTT reagent was added to each well and incubated at 37 °C with 5% CO2 for 4 h. Subsequently, 100 μL of acidified isopropyl alcohol was added. Then the OD value was measured at 450 nm using a microplate reader and the cell proliferation rate relative to the control was calculated. The IC50 was analyzed by SPSS 13.0 (SPSS, Chicago, IL, USA). Rat normal pituitary cells were used as a positive control.

[2] = MTT cytotoxicity assay, rat normal pituitary cells; type: cell-based; conditions: rat, rat normal pituitary cells (RPC); MTT method; normal cells used as control; read-out: Cytotoxicity IC50 against rat normal pituitary cells (RPC)
Procedure: as §1

[3] = test system: rat pituitary adenoma GH3 cell lines; test: MTT cytotoxicity assay, GH3 cells; type: cell-based; conditions: MTT method, read-out: Cytotoxicity IC50 against GH3 cell lines
Procedure: as §1

[4] = test system: rat prolactinoma MMQ cell lines; test: MTT cytotoxicity assay, MMQ cells; type: cell-based; conditions: MTT method, read-out: Cytotoxicity IC50 against MMQ cell lines
Procedure: as §1

α-glucosidase = α-glucosidase (Saccharomyces cerevisiae, UniProt P53341); type: biochemical
Procedure: The assay of α-glucosidase inhibitory activity was carried out according to the reported method, with minor modifications. All of the assays were performed under 0.01 M potassium phosphate buffer (pH 7). Enzyme solutions were prepared to give 2.0 Units/mL in 2 mL buffer solution. Test samples were dissolved in dimethyl sulphoxide (DMSO) to give an initial concentration of 4000 μM/L. One-hundred fifty-five microliters of phosphate buffer, 10 μL of test samples, and 10 μL of diluted enzyme solution were mixed in each well of a 96-well microtiter plate. After 20 min incubation at 37 °C, 25 μL of substrate (p-nitrophenyl-α-D-glucopyranoside, 1.5 mg/mL) was added to each well to begin the enzymatic reaction. The reaction was monitored spectrophotometrically by measuring the absorbance at 410 nm for a 1 min interval. […] All measurements were done in triplicate from two independent experiments. The reported IC50 was the average value of two independent experiments.

Chain of α-glucosidase (P53341 whole entry): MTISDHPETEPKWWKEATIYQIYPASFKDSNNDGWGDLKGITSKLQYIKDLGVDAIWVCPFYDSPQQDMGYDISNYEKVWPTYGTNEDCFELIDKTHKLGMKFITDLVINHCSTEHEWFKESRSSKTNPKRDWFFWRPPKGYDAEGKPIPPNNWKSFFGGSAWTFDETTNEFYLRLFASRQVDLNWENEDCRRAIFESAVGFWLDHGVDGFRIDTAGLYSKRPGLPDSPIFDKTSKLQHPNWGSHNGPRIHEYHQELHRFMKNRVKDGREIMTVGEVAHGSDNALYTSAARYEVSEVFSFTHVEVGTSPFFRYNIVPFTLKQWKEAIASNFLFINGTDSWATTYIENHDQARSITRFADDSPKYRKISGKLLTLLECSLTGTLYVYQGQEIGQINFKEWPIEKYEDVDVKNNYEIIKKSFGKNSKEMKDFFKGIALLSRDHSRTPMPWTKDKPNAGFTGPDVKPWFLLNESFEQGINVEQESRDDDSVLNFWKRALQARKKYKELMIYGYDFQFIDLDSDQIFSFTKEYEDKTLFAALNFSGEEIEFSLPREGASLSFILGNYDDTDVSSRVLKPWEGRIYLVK

Compound | Cytotoxicity against GH3/MMQ cells, fold better than against RPC cells [1] | IC50 [2] [µM] | IC50 [3] [µM] | IC50 [4] [µM] | α-Glucosidase inhibitory effect, fold better than acarbose (α-glucosidase)
C[C@H]1CCC(=O)CCCCc2cc(O)cc(O)c2C(=O)O1 [Compound 8, (3S)-6-oxo-de-O-methyllasiodiplodin] | seven-fold | 143 | 21.4 | 13.6 | 
C[C@@H]1CCCCCCCc2cc(O)cc(O)c2C(=O)O1 [Compound 9, (3R)-de-O-methyllasiodiplodin] |  | 6.94 | 6.44 | 6.58 | 
COc1cc(O)cc2c1C(=O)O[C@H](C)CCCCC/C=C/2 [Compound 16, (E)-9-etheno-lasiodiplodin] |  |  |  |  | seven-fold
C[C@@H]1CCCCCCCC(=O)Cc2cc(O)cc(O)c2C(=O)O1 [Compound 17, (3R)-nordinone] | ten-fold | 100 | 12.3 | 10.1 | seven-fold
